Measured values from ChEMBL document CHEMBL1201861, “Genomics of Drug Sensitity in Cancer screening data, Wellcome Trust Sanger Institute”.

Experiments:
Experiment in all cases: cells
Settings in all cases: Homo sapiens
COLO-800 = assay type: functional, cell-based
Description: SANGER: Inhibition of human COLO-800 cell growth in a cell viability assay.

COLO-829 = assay type: functional, cell-based
Description: SANGER: Inhibition of human COLO-829 cell growth in a cell viability assay.

COR-L88 = assay type: functional, cell-based
Description: SANGER: Inhibition of human COR-L88 cell growth in a cell viability assay.

CW-2 = assay type: functional, cell-based
Description: SANGER: Inhibition of human CW-2 cell growth in a cell viability assay.

D-263MG = assay type: functional, cell-based
Description: SANGER: Inhibition of human D-263MG cell growth in a cell viability assay.

D283 Med = assay type: functional, cell-based
Description: SANGER: Inhibition of human D-283MED cell growth in a cell viability assay.

DSH1 = assay type: functional, cell-based
Description: SANGER: Inhibition of human DSH1 cell growth in a cell viability assay.

EKVX = assay type: functional, cell-based
Description: SANGER: Inhibition of human EKVX cell growth in a cell viability assay.

EW-11 = assay type: functional, cell-based
Description: SANGER: Inhibition of human EW-11 cell growth in a cell viability assay.

EW-18 = assay type: functional, cell-based
Description: SANGER: Inhibition of human EW-18 cell growth in a cell viability assay.

GI-ME-N = assay type: functional, cell-based
Description: SANGER: Inhibition of human GI-ME-N cell growth in a cell viability assay.

HAL-01 = assay type: functional, cell-based
Description: SANGER: Inhibition of human HAL-01 cell growth in a cell viability assay.

HL-60 = assay type: functional, cell-based
Description: SANGER: Inhibition of human HL-60 cell growth in a cell viability assay.

IST-MES1 = assay type: functional, cell-based
Description: SANGER: Inhibition of human IST-MES1 cell growth in a cell viability assay.

JAR = assay type: functional, cell-based
Description: SANGER: Inhibition of human JAR cell growth in a cell viability assay.

KARPAS-299 = assay type: functional, cell-based
Description: SANGER: Inhibition of human KARPAS-299 cell growth in a cell viability assay.

KE-37 = assay type: functional, cell-based
Description: SANGER: Inhibition of human KE-37 cell growth in a cell viability assay.

KY821 = assay type: functional, cell-based
Description: SANGER: Inhibition of human KY821 cell growth in a cell viability assay.

L-428 = assay type: functional, cell-based
Description: SANGER: Inhibition of human L-428 cell growth in a cell viability assay.

LB1047-RCC = assay type: functional, cell-based
Description: SANGER: Inhibition of human LB1047-RCC cell growth in a cell viability assay.

LB771-HNC = assay type: functional, cell-based
Description: SANGER: Inhibition of human LB771-HNC cell growth in a cell viability assay.

LB831-BLC = assay type: functional, cell-based
Description: SANGER: Inhibition of human LB831-BLC cell growth in a cell viability assay.

LNCaP-Clone-FGC = assay type: functional, cell-based
Description: SANGER: Inhibition of human LNCaP-Clone-FGC cell growth in a cell viability assay.

LS-411N = assay type: functional, cell-based
LS-513 = assay type: functional, cell-based
Description: SANGER: Inhibition of human LS-513 cell growth in a cell viability assay.

LU-134-A = assay type: functional, cell-based
Description: SANGER: Inhibition of human LU-134-A cell growth in a cell viability assay.

Lu-65 = assay type: functional, cell-based
Description: SANGER: Inhibition of human LU-65 cell growth in a cell viability assay.

LXF-289 cell line = assay type: functional, cell-based
Description: SANGER: Inhibition of human LXF-289 cell growth in a cell viability assay.

MHH-NB-11 = assay type: functional, cell-based
Description: SANGER: Inhibition of human MHH-NB-11 cell growth in a cell viability assay.

MPP-89 = assay type: functional, cell-based
Description: SANGER: Inhibition of human MPP-89 cell growth in a cell viability assay.

MSTO-211H = assay type: functional, cell-based
Description: SANGER: Inhibition of human MSTO-211H cell growth in a cell viability assay.

Mo = assay type: functional, cell-based
Description: SANGER: Inhibition of human Mo-T cell growth in a cell viability assay.

NB10 = assay type: functional, cell-based
Description: SANGER: Inhibition of human NB10 cell growth in a cell viability assay.

NB6 = assay type: functional, cell-based
Description: SANGER: Inhibition of human NB6 cell growth in a cell viability assay.

NCI-H1092 = assay type: functional, cell-based
Description: SANGER: Inhibition of human NCI-H1092 cell growth in a cell viability assay.

NCI-H1355 = assay type: functional, cell-based
Description: SANGER: Inhibition of human NCI-H1355 cell growth in a cell viability assay.

NCI-H1650 = assay type: functional, cell-based
Description: SANGER: Inhibition of human NCI-H1650 cell growth in a cell viability assay.

NCI-H526 = assay type: functional, cell-based
Description: SANGER: Inhibition of human NCI-H526 cell growth in a cell viability assay.

NH-12 = assay type: functional, cell-based
Description: SANGER: Inhibition of human NH-12 cell growth in a cell viability assay.

NKM-1 = assay type: functional, cell-based
Description: SANGER: Inhibition of human NKM-1 cell growth in a cell viability assay.

OCUB-M = assay type: functional, cell-based
Description: SANGER: Inhibition of human OCUB-M cell growth in a cell viability assay.

OVCAR-4 = assay type: functional, cell-based
Description: SANGER: Inhibition of human OVCAR-4 cell growth in a cell viability assay.

RH-1 = assay type: functional, cell-based
Description: SANGER: Inhibition of human RH-1 cell growth in a cell viability assay.

SHP77 = assay type: functional, cell-based, SHP-77
Description: SANGER: Inhibition of human SHP-77 cell growth in a cell viability assay.

SW684 = assay type: functional, cell-based
Description: SANGER: Inhibition of human SW684 cell growth in a cell viability assay.

SW 962 = assay type: functional, cell-based
Description: SANGER: Inhibition of human SW962 cell growth in a cell viability assay.

TE-1 = assay type: functional, cell-based
Description: SANGER: Inhibition of human TE-1 cell growth in a cell viability assay.

A498 = assay type: functional, cell-based
Description: SANGER: Inhibition of human A498 cell growth in a cell viability assay.

ALL-PO = assay type: functional, cell-based
Description: SANGER: Inhibition of human ALL-PO cell growth in a cell viability assay.

BB30-HNC = assay type: functional, cell-based
Description: SANGER: Inhibition of human BB30-HNC cell growth in a cell viability assay.

BB49-HNC = assay type: functional, cell-based
Description: SANGER: Inhibition of human BB49-HNC cell growth in a cell viability assay.

BT-474 = assay type: functional, cell-based
Description: SANGER: Inhibition of human BT-474 cell growth in a cell viability assay.

BV-173 = assay type: functional, cell-based
Description: SANGER: Inhibition of human BV-173 cell growth in a cell viability assay.

C2BBe1 = assay type: functional, cell-based
Description: SANGER: Inhibition of human C2BBe1 cell growth in a cell viability assay.

TE-8 = assay type: functional, cell-based
Description: SANGER: Inhibition of human TE-8 cell growth in a cell viability assay.

TGBC24TKB = assay type: functional, cell-based
Description: SANGER: Inhibition of human TGBC24TKB cell growth in a cell viability assay.

COLO-320-HSR = assay type: functional, cell-based
Description: SANGER: Inhibition of human COLO-320-HSR cell growth in a cell viability assay.

COLO-668 = assay type: functional, cell-based
Description: SANGER: Inhibition of human COLO-668 cell growth in a cell viability assay.

COLO-684 = assay type: functional, cell-based
Description: SANGER: Inhibition of human COLO-684 cell growth in a cell viability assay.

## Cn1c(=O)n(-c2ccc(C(C)(C)C#N)cc2)c2c3cc(-c4cnc5ccccc5c4)ccc3ncc21 [DACTOLISIB]
COLO-800
  IC50: 32.9 nM
COLO-829
  IC50: 296 nM
COR-L88
  IC50: 848 nM
CW-2
  IC50: 270 nM
D-263MG
  IC50: 29.3 nM
D283 Med
  IC50: 49.6 nM
DSH1
  IC50: 407 nM
EKVX
  IC50: 101 nM
EW-11
  IC50: 96.9 nM
EW-18
  IC50: 31.9 nM
GI-ME-N
  IC50: 29.9 nM
HAL-01
  IC50: 55.8 nM
HL-60
  IC50: 123 nM
IST-MES1
  IC50: 237 nM
JAR
  IC50: 956 nM
KARPAS-299
  IC50: 1790 nM
KE-37
  IC50: 58.8 nM
KY821
  IC50: 56.2 nM
L-428
  IC50: 275 nM
LB1047-RCC
  IC50: 38.8 nM
LB771-HNC
  IC50: 286 nM
LB831-BLC
  IC50: 121 nM
LNCaP-Clone-FGC
  IC50: 37.6 nM
LS-411N
  IC50: 187 nM
LS-513
  IC50: 141 nM
LU-134-A
  IC50: 79 nM
Lu-65
  IC50: 1620 nM
LXF-289 cell line
  IC50: 26 nM
MHH-NB-11
  IC50: 629 nM
MPP-89
  IC50: 25.3 nM
MSTO-211H
  IC50: 63.5 nM
Mo
  IC50: 948 nM
NB10
  IC50: 240 nM
NB6
  IC50: 397 nM
NCI-H1092
  IC50: 145 nM
NCI-H1355
  IC50: 46.3 nM
NCI-H1650
  IC50: 204 nM
NCI-H526
  IC50: 824 nM
NH-12
  IC50: 133 nM
NKM-1
  IC50: 54.8 nM
OCUB-M
  IC50: 82.4 nM
OVCAR-4
  IC50: 73.4 nM
RH-1
  IC50: 54.7 nM
SHP77
  IC50: > 2000 nM
SW684
  IC50: 196 nM
SW 962
  IC50: 26.8 nM
TE-1
  IC50: 223 nM
A498
  IC50: 75.2 nM
ALL-PO
  IC50: 416 nM
BB30-HNC
  IC50: 131 nM
BB49-HNC
  IC50: 174 nM
BT-474
  IC50: 236 nM
BV-173
  IC50: 23.9 nM
C2BBe1
  IC50: 75 nM
TE-8
  IC50: 66.5 nM
TGBC24TKB
  IC50: 222 nM
COLO-320-HSR
  IC50: 403 nM
COLO-668
  IC50: 706 nM
COLO-684
  IC50: 33.6 nM
